One test has as its system MCF-7 cells. Kind of test: Breast cancer cell viability assay (CellTiter-Glo, 5 days). The note with it: 5 days' compound exposure; for IC50: Homo sapiens, MCF7, 120 h. Type of test: cell-based. Put shortly:
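Eleven-point semilog compound series, final 0.3-0.000003 μM, added to overnight-adhered MCF-7 cells (320/well; RPMI, 10% FBS, 20 mM HEPES) for 5 days. Viability read by CellTiter-Glo luminescence, background from medium without cells subtracted, expressed relative to untreated cells.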

For the next test, the target named is T1, ER-α in MCF-7 cells (Homo sapiens, UniProt P03372).
T1 sequence (P03372 1-595): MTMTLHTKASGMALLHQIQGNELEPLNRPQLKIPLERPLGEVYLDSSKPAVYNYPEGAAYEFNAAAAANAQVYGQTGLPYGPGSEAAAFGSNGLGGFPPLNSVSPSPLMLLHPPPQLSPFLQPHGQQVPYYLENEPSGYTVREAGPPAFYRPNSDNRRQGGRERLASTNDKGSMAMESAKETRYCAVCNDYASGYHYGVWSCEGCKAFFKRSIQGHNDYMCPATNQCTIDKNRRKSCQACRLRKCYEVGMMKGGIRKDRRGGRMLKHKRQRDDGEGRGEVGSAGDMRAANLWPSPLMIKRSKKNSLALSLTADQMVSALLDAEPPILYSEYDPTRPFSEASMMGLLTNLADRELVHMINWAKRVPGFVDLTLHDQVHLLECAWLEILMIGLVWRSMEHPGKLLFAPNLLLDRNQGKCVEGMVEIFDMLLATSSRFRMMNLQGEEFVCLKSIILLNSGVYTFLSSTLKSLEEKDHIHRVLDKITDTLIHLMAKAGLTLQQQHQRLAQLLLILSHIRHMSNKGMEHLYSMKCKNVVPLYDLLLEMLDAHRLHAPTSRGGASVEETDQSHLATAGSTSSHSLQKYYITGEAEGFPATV
Kind of test: Breast cancer cell ER-α in cell western assay (SP1). Type of test: cell-based. Set-up: endogenous in cells; host or cells: MCF-7. The note with it: 4 or 24 hr post compound addition; for Emax: MCF7, SP1 antibody, read-out: ER-α In Cell Western Assay (SP1) Max Response; for DC50: SP1 antibody, read-out: ER-α In Cell Western Assay (SP1) IC50. An outline of the steps: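 Fixed cells were immunostained with SP1 anti-ER antibody; ER signal (800 nm) was normalized to DRAQ5 DNA signal (700 nm) and expressed as % of untreated cells.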

On to `CC/C(=C(/c1ccc(/C=C/C(=O)O)cc1)c1ccc2[nH]ncc2c1)c1ccc(CC(=O)O)cc1` [Compound 328, (E)-3-(4-((E)-2-(4-(Carboxymethyl)phenyl)-1-(1H-indazol-5-yl)but-1-en-1-yl)phenyl)acrylic acid], for which, in the test with MCF-7 cells, the “MCF7 Viability Assay Max Response” value is on record as “+ (+ = a single % value < 40%)” and the IC50 (commonly the concentration that inhibits the measured activity by half) was greater than 100 nM. Also, on ER-α in MCF-7 cells, the Emax was less than 40% and the DC50 is greater than 100 nM.

`CC/C(=C(/c1ccc(/C=C/C(=O)O)cc1)c1coc2c(OC)cccc12)c1ccccc1` [Compound 163, (E)-3-(4-((E)-1-(7-Methoxybenzofuran-3-yl)-2-phenylbut-1-en-1-yl)phenyl)acrylic acid]: in the test on MCF-7 cells, the “MCF7 Viability Assay Max Response” value is “++ (++ = a single % value ≧ 40%)” and the IC50 is no more than 100 nM. In addition, at ER-α in MCF-7 cells, the Emax was no less than 40% and the DC50 is no more than 100 nM.

Regarding `CC/C(=C(/c1ccc(/C=C/c2noc(=S)[nH]2)cc1)c1ccc2[nH]ncc2c1)c1ccccc1` [Compound 440, 3-((E)-4-((E)-1-(1H-Indazol-5-yl)-2-phenylbut-1-en-1-yl)styryl)-1,2,4-oxadiazole-5(4H)-thione], in the test with MCF-7 cells, the “MCF7 Viability Assay Max Response” value is “+ (+ = a single % value < 40%)” and the IC50 is no more than 100 nM. Further, on ER-α in MCF-7 cells, the Emax is no less than 40% and the DC50 is no more than 100 nM.

For `CC/C(=C(/c1ccc(OCC(=O)O)cc1)c1ccc2[nH]ncc2c1)c1ccccc1` [Compound 190, (E)-2-(4-(1-(1H-Indazol-5-yl)-2-phenylbut-1-en-1-yl)phenoxy)acetic acid], in the test on MCF-7 cells, the “MCF7 Viability Assay Max Response” value is listed as “++ (++ = a single % value ≧ 40%)” and the half-maximal inhibitory concentration (IC50) was greater than 100 nM. On ER-α in MCF-7 cells, the Emax was no less than 40% and the DC50 was greater than 100 nM.

Take `CC/C(=C(/c1ccc(/C=C/C(=O)O)cc1)c1ccc2[nH]ncc2c1)c1cccc(Oc2ccncc2)c1` [Compound 366, (E)-3-(4-((E)-1-(1H-Indazol-5-yl)-2-(3-(pyridin-4-yloxy)phenyl)but-1-en-1-yl)phenyl)acrylic acid]: in the test on MCF-7 cells, the “MCF7 Viability Assay Max Response” value is reported as “++ (++ = a single % value ≧ 40%)” and the IC50 was no more than 100 nM. Besides, at ER-α in MCF-7 cells, the Emax was no less than 40% and the DC50 is no more than 100 nM.

For the compound `CC/C(=C(/c1ccc(/C=C/C(=O)O)cc1)c1ccc2[nH]c(=O)sc2c1)c1ccccc1` [Compound 75, (E)-3-(4-((E)-1-(2-Oxo-2,3-dihydrobenzo[d]thiazol-6-yl)-2-phenylbut-1-en-1-yl)phenyl)acrylic acid], in the test with MCF-7 cells, the “MCF7 Viability Assay Max Response” value was “++ (++ = a single % value ≧ 40%)” and the half-inhibitory concentration (IC50) is greater than 100 nM. Further, the Emax on ER-α in MCF-7 cells was no less than 40%.

For `CC/C(=C(/c1ccc(/C=C/C(=O)O)cc1)c1ccc2[nH]ncc2c1)c1cccc(-c2ccncc2)c1` [Compound 394, (E)-3-(4-((E)-1-(1H-Indazol-5-yl)-2-(3-(pyridin-4-yl)phenyl)but-1-en-1-yl)phenyl)acrylic acid], in the test on MCF-7 cells, the “MCF7 Viability Assay Max Response” value is “++ (++ = a single % value ≧ 40%)” and the 50% inhibitory concentration (IC50) is greater than 100 nM. Further, on ER-α in MCF-7 cells, the Emax was no less than 40% and the DC50 was no more than 100 nM.

For `CC/C(=C(/c1ccc(/C=C/C(=O)NS(C)(=O)=O)cc1)c1ccc2c(cnn2C)c1)c1ccc(F)cc1Cl` [Compound 424, (E)-3-(4-((E)-2-(2-Chloro-4-fluorophenyl)-1-(1-methyl-1H-indazol-5-yl)but-1-en-1-yl)phenyl)-N-(methylsulfonyl)acrylamide], in the test with MCF-7 cells, the “MCF7 Viability Assay Max Response” value was “++ (++ = a single % value ≧ 40%)” and the concentration for half-maximal inhibition (IC50) is greater than 100 nM. On ER-α in MCF-7 cells, the Emax was no less than 40% and the DC50 was no more than 100 nM.

As to `CC/C(=C(/c1ccc(/C=C/C(=O)O)cc1)c1ccc2[nH]c(=O)oc2c1)c1ccccc1` [Compound 66, (E)-3-(4-((E)-1-(2-Oxo-2,3-dihydrobenzo[d]oxazol-6-yl)-2-phenylbut-1-en-1-yl)phenyl)acrylic acid], in the test with MCF-7 cells, the “MCF7 Viability Assay Max Response” value is recorded as “++ (++ = a single % value ≧ 40%)” and the IC50 was no more than 100 nM. In addition, the Emax on ER-α in MCF-7 cells was no less than 40%.

Take `CC/C(=C(/c1ccc(/C=C/C(=O)O)cc1)c1ccc2[nH]ncc2c1)c1ccc(N(C)C)cc1` [Compound 62, (E)-3-(4-((E)-2-(4-(Dimethylamino)phenyl)-1-(1H-indazol-5-yl)but-1-en-1-yl)phenyl)acrylic acid]: in the test with MCF-7 cells, the “MCF7 Viability Assay Max Response” value is “++ (++ = a single % value ≧ 40%)” and the IC50 was greater than 100 nM. On ER-α in MCF-7 cells, the Emax is no less than 40% and the DC50 was greater than 100 nM.

Consider `CC/C(=C(/c1ccc(/C=C/C(=O)O)cc1)c1ccc2[nH]ncc2c1)c1cccc(OCC(=O)O)c1` [Compound 347, (E)-3-(4-((E)-2-(3-(Carboxymethoxy)phenyl)-1-(1H-indazol-5-yl)but-1-en-1-yl)phenyl)acrylic acid], for which, in the test on MCF-7 cells, the “MCF7 Viability Assay Max Response” value is listed as “+ (+ = a single % value < 40%)” and the IC50 was greater than 100 nM. In addition, on ER-α in MCF-7 cells, the Emax was less than 40% and the DC50 was greater than 100 nM.

As to `CC/C(=C(/c1ccc(/C=C/C(=O)O)cc1)c1cc(F)cc2[nH]ncc12)c1ccccc1` [Compound 86, (E)-3-(4-((E)-1-(6-Fluoro-1H-indazol-4-yl)-2-phenylbut-1-en-1-yl)phenyl)acrylic acid], in the test with MCF-7 cells, the “MCF7 Viability Assay Max Response” value is on record as “++ (++ = a single % value ≧ 40%)” and the IC50 is no more than 100 nM. Further, on ER-α in MCF-7 cells, the Emax is no less than 40% and the DC50 was no more than 100 nM.

Regarding `CCOC(=O)/C=C/c1ccc(/C(=C(/CC)c2ccccc2)c2ccc3cn[nH]c3c2)cc1` [Compound 172, (E)-Ethyl 3-(4-((E)-1-(1H-indazol-6-yl)-2-phenylbut-1-en-1-yl)phenyl)acrylate], in the test with MCF-7 cells, the “MCF7 Viability Assay Max Response” value was “+ (+ = a single % value < 40%)” and the IC50 was no more than 100 nM. Moreover, on ER-α in MCF-7 cells, the Emax is no less than 40% and the DC50 is greater than 100 nM.

With `CC/C(=C(/c1ccc(/C=C/C(=O)O)cc1)c1ccc2[nH]ncc2c1)c1ccc(-c2cnsc2)cc1` [Compound 395, (E)-3-(4-((E)-1-(1H-Indazol-5-yl)-2-(4-(isothiazol-4-yl)phenyl)but-1-en-1-yl)phenyl)acrylic acid], in the test on MCF-7 cells, the “MCF7 Viability Assay Max Response” value was “++ (++ = a single % value ≧ 40%)” and the half-inhibitory concentration (IC50) was greater than 100 nM. For the same compound, on ER-α in MCF-7 cells, the Emax is no less than 40% and the DC50 was no more than 100 nM.

On to `CC/C(=C(/c1ccc(/C=C/C(=O)O)cc1)c1ccc2[nH]ncc2c1)c1cccc(Oc2ccc(C)nc2)c1` [Compound 382, (E)-3-(4-((E)-1-(1H-Indazol-5-yl)-2-(3-((6-methylpyridin-3-yl)oxy)phenyl)but-1-en-1-yl)phenyl)acrylic acid], for which, in the test on MCF-7 cells, the “MCF7 Viability Assay Max Response” value is given as “++ (++ = a single % value ≧ 40%)” and the IC50 was no more than 100 nM. On ER-α in MCF-7 cells, the Emax is no less than 40% and the DC50 was no more than 100 nM.

For `CC/C(=C(/c1ccc(/C=C/C(=O)O)cc1)c1ccc2[nH]ncc2c1)c1ccc(Oc2ccccc2)c(F)c1` [Compound 295, (E)-3-(4-((E)-2-(3-Fluoro-4-phenoxyphenyl)-1-(1H-indazol-5-yl)but-1-en-1-yl)phenyl)acrylic acid], in the test on MCF-7 cells, the “MCF7 Viability Assay Max Response” value is listed as “++ (++ = a single % value ≧ 40%)” and the IC50 was no more than 100 nM. Moreover, on ER-α in MCF-7 cells, the Emax is no less than 40% and the DC50 is no more than 100 nM.

For the compound `CC/C(=C(/c1ccc(/C=C/C(=O)O)cc1)c1ccc2[nH]ncc2c1)c1ccc2sc(C)nc2c1` [Compound 273, (E)-3-(4-((E)-1-(1H-Indazol-5-yl)-2-(2-methylbenzo[d]thiazol-5-yl)but-1-en-1-yl)phenyl)acrylic acid], in the test with MCF-7 cells, the “MCF7 Viability Assay Max Response” value was “++ (++ = a single % value ≧ 40%)” and the 50% inhibitory concentration (IC50) is no more than 100 nM. Moreover, on ER-α in MCF-7 cells, the Emax is no less than 40% and the DC50 is no more than 100 nM.

In the case of `CC/C(=C(/c1ccc(/C=C/C(=O)O)cc1)c1ccc2[nH]ccc2c1)c1ccccc1` [Compound 64, (E)-3-(4-((E)-1-(1H-Indol-5-yl)-2-phenylbut-1-en-1-yl)phenyl)acrylic acid], in the test with MCF-7 cells, the “MCF7 Viability Assay Max Response” value is recorded as “++ (++ = a single % value ≧ 40%)” and the 50% inhibitory concentration (IC50) was no more than 100 nM. Besides, at ER-α in MCF-7 cells, the Emax is no less than 40%.

Turning to `CC/C(=C(/c1ccc(/C=C/C(=O)O)cc1)c1ccc2[nH]ncc2c1)c1cncnc1` [Compound 220, (E)-3-(4-((E)-1-(1H-Indazol-5-yl)-2-(pyrimidin-5-yl)but-1-en-1-yl)phenyl)acrylic acid], in the test on MCF-7 cells, the “MCF7 Viability Assay Max Response” value is given as “+ (+ = a single % value < 40%)” and the IC50 was greater than 100 nM. At ER-α in MCF-7 cells, the Emax was less than 40% and the DC50 is greater than 100 nM.

The values above are taken from US9399646B2 (Genentech, Inc., priority 2010, dated 2016).
